Assay results from patent publication US20260174179A1, “ANTI-INFECTIVE SHOE SOLES” (priority 2019, published 2026).

System: Pseudomonas aeruginosa (PAO)
Assay: Kirby-Bauer disk diffusion test, agar overlay culture
Format: cell-based
Conditions: 6 mm disk, 24 hours at 37° C.
Experimental: FIG. 13 is a schematic illustrating a Kirby-Bauer Disk Diffusion test. Bacterial cells are plated from a broth culture onto sterile agar petri dishes, and antibiotic soaked paper disks (or control disks without antibiotic) are placed directly on the dish. After 24 or more hours, a confluent layer of bacteria appear to grow up on the dish. Clearing or clear but hazy zones indicate antibiotic sensitivity of the test microbe. The size of the killing zone reflects how well the antibiotic diffuses into the agar and sensitivity of the organism.
FIG. 14A is an image showing the results of a Disk Diffusion test with Pseudomonas aeruginosa (PAO). Three disks were placed on a PAO/agar overlay culture: a penicillin-soaked paper disk, a negative control (no treatment) paper disk, and a sterile punch disk of pure elemental sheet copper, and the culture was incubated for 24 hours. Zones of inhibition are marked as clearing zones (dashed circles) where bacterial growth was stunted. […]
In some studies, a disk-diffusion test was used as a model for testing diffusion and bacterial targeting (FIG. 13). […] The bacteria were allowed to grow on the agar media, and growth was observed using a simple read-out: a zone of clearing around a disk indicated no bacterial growth, and conversely, the lack of a clearing perimeter indicated bacterial resistance. […]

Which “clearing extended from the edge of the disk” value does the source give for penicillin here?
The value was 5-7 mm.

What about the killing zone (FIG. 14A) of the same substance?
Its killing zone is 6 mm.
